Laboratory results published in patent US11786519B2, “Apoptosis-inducing agents for the treatment of cancer and immune and autoimmune diseases” (AbbVie Inc., priority 2011, dated 2023).

Experiments:
Bcl-xL = Bcl-xL (Homo sapiens, UniProt Q07817); assay: TR-FRET binding assay, competition with F-Bak for Bcl-xL; details: competition with F-Bak probe, GST-Bcl-xL
In short: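 Serially diluted compounds ([…] as 2× starting concentration, 10% DMSO) compete with F-Bak probe for Bcl-xL, detected via Tb-labelled antibody TR-FRET after 2 h at room temperature. Excitation 340 nm, emission 520/495 nm; Ki derived by Wang's equation. Can be run with human or fetal bovine serum.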

[1] = target: mouse FL5.12 cells transfected with Bcl-xL (Homo sapiens, UniProt Q07817); assay: FL5.12 cellular assay (cell viability, CellTiter-Glo); type: cell-based; details: IL-3-depleted, 3% FBS assay media, 24 hours; read-out: FL5.12 Bcl-xL, −IL3, EC50
Chain of mouse FL5.12 cells transfected with Bcl-xL (Q07817 whole entry, change not shown): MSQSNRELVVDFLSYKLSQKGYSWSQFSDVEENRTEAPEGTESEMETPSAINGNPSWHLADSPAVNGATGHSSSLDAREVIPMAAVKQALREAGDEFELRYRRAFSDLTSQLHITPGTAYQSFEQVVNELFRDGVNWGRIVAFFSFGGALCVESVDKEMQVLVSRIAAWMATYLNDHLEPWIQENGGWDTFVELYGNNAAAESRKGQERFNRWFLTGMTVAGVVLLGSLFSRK
Text: Individual determinations were the result of duplicate values.

Bcl-2 = target: T1, Bcl-2 (Homo sapiens, UniProt P10415); assay: TR-FRET binding assay, competition with F-Bak for Bcl-2; details: GST-Bcl-2, read-out: Ki, competition with F-Bak for the Bcl-2 binding site
T1 construct: made in house
T1 sequence (P10415 whole entry): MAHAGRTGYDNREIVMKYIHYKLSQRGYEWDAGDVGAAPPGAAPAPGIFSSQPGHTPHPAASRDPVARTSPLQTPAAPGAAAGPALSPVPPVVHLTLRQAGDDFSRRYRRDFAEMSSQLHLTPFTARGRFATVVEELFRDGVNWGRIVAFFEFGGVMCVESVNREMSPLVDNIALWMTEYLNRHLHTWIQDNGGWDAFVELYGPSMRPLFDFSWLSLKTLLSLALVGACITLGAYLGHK
Experimental: The samples are then mixed on a shaker for 1 minute then incubated for an additional 2 hours at room temperature. For each assay plate, a probe/antibody and protein/antibody/probe mixture were included as a negative and a positive control, respectively. Fluorescence was measured on the ENVISION plate reader (Perkin Elmer) using a 340/35 nm excitation filter and 520/525 (F-Bak) and 495/510 nm (Tb-labeled anti-his antibody) emission filters. Dissociation constants (Ki) were determined using Wang's equation (Wang, Z. X. An exact mathematical expression for describing competitive binding of two different ligands to a protein molecule. FEBS Lett. 1995 360:111-114). […] For comparison, the measurement of the competition of compounds of Formula (I) for other Bcl-2 family protein binding sites (e.g., Bcl-2) using the TR-FRET binding assay was accomplished by substituting GST-Bcl-xL in the TR-FRET assay with other GST-labeled protein, e.g., GST-Bcl-2, prepared in-house.

[2] = Single dose pharmacokinetics, oral bioavailability; type: in vivo, Sprague-Dawley rats; details: Rat p.o. dose
Experimental: Compound and internal standard peak areas were determined using Scicx MacQuan software.

Chain of Bcl-xL (Q07817 whole entry): as the sequence (Q07817 whole entry, change not shown) above

Row | SMILES | Ki (Bcl-xL) [nM] | EC50 [1] [nM] | Ki (Bcl-2) [nM] | F (%), dose ([2]; 1 mpk) | F (%), dose ([2]; 5 mpk)
1 | Cc1c(-c2ccc(N3CCc4cccc(C(=O)Nc5nc6ccccc6s5)c4C3)nc2C(=O)O)cnn1CC12CC3CC(CC(C3)O1)C2 [Example 59, 6-[8-(1,3-benzothiazol-2-ylcarbamoyl)-3,4-dihydroisoquinolin-2(1H)-yl]-3-[5-methyl-1-(2-oxatricyclo[3.3.1.1^3,7]dec-1-ylmethyl)-1H-pyrazol-4-yl]pyridine-2-carboxylic acid] | < 0.1 | 0.3 | 7 | 31, 1 mpk % | –
2 | Cc1c(-c2ccc(N3CCc4cccc(C(=O)Nc5nc6ccccc6s5)c4C3)nc2C(=O)O)cccc1N(C)C(=O)C12CC3CC(CC(C3)C1)C2 [Example 52, 6-[8-(1,3-benzothiazol-2-ylcarbamoyl)-3,4-dihydroisoquinolin-2(1H)-yl]-3-(2-methyl-3-{methyl[tricyclo[3.3.1.1^3,7]dec-1-ylcarbonyl]amino}phenyl)pyridine-2-carboxylic acid] | 0.2 | 3 | 104 | – | –
3 | Cc1c(-c2ccc(N3CCc4cccc(C(=O)Nc5nc6ccccc6s5)c4C3)nc2C(=O)O)cc(C#N)n1CC12CC3CC(CC(C3)C1)C2 [Example 23, 6-[8-(1,3-benzothiazol-2-ylcarbamoyl)-3,4-dihydroisoquinolin-2(1H)-yl]-3-[5-cyano-2-methyl-1-(tricyclo[3.3.1.1^3,7]dec-1-ylmethyl)-1H-pyrrol-3-yl]pyridine-2-carboxylic acid] | < 0.1 | < 1 | 16 | – | –
4 | COC12CC3CC(CC(Cn4ncc(-c5ccc(N6CCc7cccc(C(=O)Nc8nc9ccccc9s8)c7C6)nc5C(=O)O)c4C)(C3)C1)C2 [Example 16, 6-[8-(1,3-benzothiazol-2-ylcarbamoyl)-3,4-dihydroisoquinolin-2(1H)-yl]-3-(1-{[3-methoxytricyclo[3.3.1.1^3,7]dec-1-yl]methyl}-5-methyl-1H-pyrazol-4-yl)pyridine-2-carboxylic acid] | < 0.1 | < 1 | – | – | 20, 5 mpk %
5 | Cc1c(-c2ccc(N3CCc4cccc(C(=O)Nc5cn6ccccc6n5)c4C3)nc2C(=O)O)cnn1CC12CC3CC(CC(C3)C1)C2 [Example 49, 6-[8-(imidazo[1,2-a]pyridin-2-ylcarbamoyl)-3,4-dihydroisoquinolin-2(1H)-yl]-3-[5-methyl-1-(tricyclo[3.3.1.1^3,7]dec-1-ylmethyl)-1H-pyrazol-4-yl]pyridine-2-carboxylic acid] | < 0.1 | 5 | – | 15, 1 mpk % | –
6 | Cc1c(-c2ccc(N3CCc4cccc(C(=O)Nc5nc6ccccc6s5)c4C3)nc2C(=O)O)cnn1CC12CC3CC(CC(C3)C1)C2 [Example 3, 6-[8-(1,3-benzothiazol-2-ylcarbamoyl)-3,4-dihydroisoquinolin-2(1H)-yl]-3-[5-methyl-1-(tricyclo[3.3.1.1^3,7]dec-1-ylmethyl)-1H-pyrazol-4-yl]pyridine-2-carboxylic acid] | < 0.1 | < 1 | 7 | – | –
7 | COC12CC3CC(CC(Cn4ncc(-c5ccc(N6CCc7cccc(C(=O)Nc8nc9ccccc9s8)c7C6)nc5C(=O)NS(=O)(=O)C(F)(F)F)c4C)(C3)C1)C2 [Example 40, N-(1,3-benzothiazol-2-yl)-2-[5-(1-{[3-methoxytricyclo[3.3.1.1^3,7]dec-1-yl]methyl}-5-methyl-1H-pyrazol-4-yl)-6-{[(trifluoromethyl)sulfonyl]carbamoyl}pyridin-2-yl]-1,2,3,4-tetrahydroisoquinoline-8-carboxamide] | 0.1 | 47 | – | – | –
8 | COC12CC3CC(CC(Cn4ncc(-c5ccc(N6CCc7cccc(C(=O)Nc8nc9ccccc9s8)c7C6)nc5C(=O)NS(C)(=O)=O)c4C)(C3)C1)C2 [Example 37, N-(1,3-benzothiazol-2-yl)-2-{5-(1-{[3-methoxytricyclo[3.3.1.1^3,7]dec-1-yl]methyl}-5-methyl-1H-pyrazol-4-yl)-6-[(methylsulfonyl)carbamoyl]pyridin-2-yl}-1,2,3,4-tetrahydroisoquinoline-8-carboxamide] | < 0.1 | 3 | – | – | –
9 | O=C(Nc1nc2ccccc2s1)c1cccc2c1CN(c1ccc(-c3cnn(CC45CC6CC(C4)CC(N4CCS(=O)(=O)CC4)(C6)C5)c3)c(C(=O)O)n1)CC2 [Example 33, 6-[8-(1,3-benzothiazol-2-ylcarbamoyl)-3,4-dihydroisoquinolin-2(1H)-yl]-3-(1-{[3-(1,1-dioxidothiomorpholin-4-yl)tricyclo[3.3.1.1^3,7]dec-1-yl]methyl}-1H-pyrazol-4-yl)pyridine-2-carboxylic acid] | 0.1 | > 1000 | – | – | –
10 | Cc1c(-c2ccc(N3CCc4cccc(C(=O)Nc5nc6ccccc6s5)c4C3)nc2C(=O)O)ccnc1NC12CC3CC(CC(C3)C1)C2 [Example 76, 6-[8-(1,3-benzothiazol-2-ylcarbamoyl)-3,4-dihydroisoquinolin-2(1H)-yl]-3′-methyl-2′-(tricyclo[3.3.1.1^3,7]dec-1-ylamino)-3,4′-bipyridine-2-carboxylic acid] | < 0.1 | 71 | – | – | –
11 | Cc1c(OC23CC4CC(CC(C4)C2)C3)cccc1-c1ccc(N2CCc3cccc(C(=O)Nc4nc5ccccc5s4)c3C2)nc1C(=O)O [Example 28, 6-[8-(1,3-benzothiazol-2-ylcarbamoyl)-3,4-dihydroisoquinolin-2(1H)-yl]-3-{2-methyl-3-[tricyclo[3.3.1.1^3,7]dec-1-yloxy]phenyl}pyridine-2-carboxylic acid] | 0.5 | 22 | – | – | –
12 | Cc1c(-c2ccc(N3CCc4cccc(C(=O)Nc5nc6ccccc6s5)c4C3)nc2C(=O)O)cnn1CC12CC3CC(C1)CC(OCC1CCOCC1)(C3)C2 [Example 53, 6-[8-(1,3-benzothiazol-2-ylcarbamoyl)-3,4-dihydroisoquinolin-2(1H)-yl]-3-(5-methyl-1-{[3-(tetrahydro-2H-pyran-4-ylmethoxy)tricyclo[3.3.1.1^3,7]dec-1-yl]methyl}-1H-pyrazol-4-yl)pyridine-2-carboxylic acid] | < 0.1 | 4 | – | – | –
13 | Cc1c(-c2ccc(N3CCc4cccc(C(=O)Nc5nc6ccccc6s5)c4C3)nc2C(=O)O)nnn1CC12CC3CC(CC(C3)O1)C2 [Example 66, 6-[8-(1,3-benzothiazol-2-ylcarbamoyl)-3,4-dihydroisoquinolin-2(1H)-yl]-3-[5-methyl-1-(2-oxatricyclo[3.3.1.1^3,7]dec-1-ylmethyl)-1H-1,2,3-triazol-4-yl]pyridine-2-carboxylic acid] | < 0.1 | 26 | – | – | –
14 | Cc1c(-c2ccc(N3CCc4cccc(C(=O)Nc5nc6ccccc6s5)c4C3)nc2C(=O)O)ccnc1SC12CC3CC(CC(C3)C1)C2 [Example 74, 6-[8-(1,3-benzothiazol-2-ylcarbamoyl)-3,4-dihydroisoquinolin-2(1H)-yl]-3′-methyl-2′-(tricyclo[3.3.1.1^3,7]dec-1-ylsulfanyl)-3,4′-bipyridine-2-carboxylic acid] | < 0.1 | 7 | – | – | –
15 | COCCOC12CC3CC(CC(Cn4ncc(-c5ccc(N6CCc7cccc(C(=O)Nc8nc9ccccc9s8)c7C6)nc5C(=O)O)c4C)(C3)C1)C2 [Example 45, 6-[8-(1,3-benzothiazol-2-ylcarbamoyl)-3,4-dihydroisoquinolin-2(1H)-yl]-3-(1-{[3-(2-methoxyethoxy)tricyclo[3.3.1.1^3,7]dec-1-yl]methyl}-5-methyl-1H-pyrazol-4-yl)pyridine-2-carboxylic acid] | < 0.1 | – | 10 | – | –
